# Laboratory results: the NIST ThermoML archive (doi:10.1016/j.jct.2010.08.020)
# Where “and” joins values, the source holds several entries; their conditions need not be identical. Identical values can stand only once. ± gives the expanded uncertainty stated by the source.
# How the values were obtained:
# [1] = molar enthalpy of vaporization or sublimation; settings: 298.15 K; Crystal; drop (calvet) calorimetry
# [2] = Crystal; for vapor or sublimation pressure: Calculated from knudsen effusion weight loss
SMILES,molar enthalpy [1],"molar enthalpy of sublimation ([2]; 298.15 K, drop (calvet) calorimetry)",vapor or sublimation pressure ([2]; 299.19 K),vapor or sublimation pressure ([2]; 301.19 K),vapor or sublimation pressure ([2]; 303.2 K),vapor or sublimation pressure ([2]; 305.11 K),vapor or sublimation pressure ([2]; 307.18 K),vapor or sublimation pressure ([2]; 309.11 K),vapor or sublimation pressure ([2]; 311.13 K),vapor or sublimation pressure ([2]; 313.19 K),vapor or sublimation pressure ([2]; 315.21 K),vapor or sublimation pressure ([2]; 317.12 K)
"Oc1ccc(Br)cc1Br [2,4-dibromophenol]",81.3 ± 3 kJ/mol,,,,,,,,,,,
"Oc1c(Br)cccc1Br [2,6-dibromophenol]",83.4 ± 3 kJ/mol,,,,,,,,,,,
"Oc1cc(Br)cc(Br)c1 [3,5-dibromophenol]",,94.3 ± 3.6 kJ/mol,0.00012 ± 6e-06 kPa and 0.000118 ± 6e-06 kPa and 0.000117 ± 6e-06 kPa,0.000157 ± 8e-06 kPa and 0.000146 ± 7e-06 kPa and 0.000151 ± 8e-06 kPa,0.000196 ± 1e-05 kPa and 0.000184 ± 9e-06 kPa and 0.000189 ± 9e-06 kPa,0.000244 ± 1.2e-05 kPa and 0.000242 ± 1.2e-05 kPa and 0.000241 ± 1.2e-05 kPa,0.000325 ± 1.6e-05 kPa and 0.000315 ± 1.6e-05 kPa and 0.000317 ± 1.6e-05 kPa,0.000407 ± 2e-05 kPa and 0.000414 ± 2.1e-05 kPa and 0.000389 ± 1.9e-05 kPa,0.000502 ± 2.5e-05 kPa and 0.000501 ± 2.5e-05 kPa and 0.000493 ± 2.5e-05 kPa,0.000663 ± 3.3e-05 kPa and 0.000629 ± 3.2e-05 kPa and 0.00065 ± 3.3e-05 kPa,0.000813 ± 4.1e-05 kPa and 0.000838 ± 4.2e-05 kPa and 0.000801 ± 4e-05 kPa,0.001011 ± 0.0001 kPa and 0.001023 ± 0.0001 kPa and 0.000993 ± 5e-05 kPa
